Data on seven compounds can be found in PubChem BioAssay AID1259411 (Chemical Carcinogenesis Research Information System (CCRIS), 2018).

For this series, the system named is rodent carcinogenicity bioassays, tumor incidence. Put plainly: CCRIS carcinogenicity studies. The note with it: Dose: 0, Dose: 0. In a few lines:
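Archive of carcinogenicity, mutagenicity, tumor promotion and tumor inhibition results drawn from journals, NCI reports and other sources, expert-reviewed; covers 1985-2011 and is no longer updated.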

The source made the active and inactive calls. How the calls were made is not given here.

`Clc1ccc(Cl)c(-c2cc(Cl)ccc2Cl)c1`: the carcinogen call runs as follows: (Species: MOUSE, Strain/Sex: STRAIN-A/FEMALE, Route: INTRAPERITONEAL, 0.1, 0.2 UMOL/UL OF DMSO 5, 10 AND 20 µL GIVEN ON DAYS 4, 8 AND 15 AFTER BIRTH, RESPECTIVELY (STUDY DURATION: 28 WK), 0.1, 0.2 UMOL/UL OF DMSO 5, 10 AND 20 µL GIVEN ON DAYS 4, 8 AND 15 AFTER BIRTH, RESPECTIVELY (STUDY DURATION: 28 WK)) “inactive; negative”; (Species: MOUSE, Strain/Sex: STRAIN-A/MALE, Route: INTRAPERITONEAL, 0.1, 0.2 UMOL/UL OF DMSO 5, 10 AND 20 µL GIVEN ON DAYS 4, 8 AND 15 AFTER BIRTH, RESPECTIVELY (STUDY DURATION: 28 WK), 0.1, 0.2 UMOL/UL OF DMSO 5, 10 AND 20 µL GIVEN ON DAYS 4, 8 AND 15 AFTER BIRTH, RESPECTIVELY (STUDY DURATION: 28 WK)) “inactive; negative”.

As for `C=CN1CCCC1=O`, the carcinogen call is, setting by setting: (Species: RAT, Strain/Sex: SPRAGUE-DAWLEY/ MALE, Route: INHALATION, 5, 10, 20 PPM 6 HR/D 5D/WK FOR 24 MO (STUDY DURATION: 24 MO), 5, 10, 20 PPM 6 HR/D 5D/WK FOR 24 MO (STUDY DURATION: 24 MO), Tumor Site: Type of Lesion: LARYNX: SQUAMOUS CELL CARCINOMA, LIVER: HEPATOCELLULAR CARCINOMA, NASAL CAVITY: ADENOCARCINOMA, ADENOMA, Tumor Site: Type of Lesion: LARYNX: SQUAMOUS CELL CARCINOMA, LIVER: HEPATOCELLULAR CARCINOMA, NASAL CAVITY: ADENOCARCINOMA, ADENOMA) “active; positive”; (Species: RAT, Strain/Sex: SPRAGUE-DAWLEY/FEMALE, Route: INHALATION, 5, 10, 20 PPM 6 HR/D 5 D/WK FOR 24 MO (STUDY DURATION: 24 MO), 5, 10, 20 PPM 6 HR/D 5 D/WK FOR 24 MO (STUDY DURATION: 24 MO), Tumor Site: Type of Lesion: LARYNX: SQUAMOUS CELL CARCINOMA, LIVER: HEPATOCELLULAR CARCINOMA, NASAL CAVITY: ADENOCARCINOMA, ADENOMA, Tumor Site: Type of Lesion: LARYNX: SQUAMOUS CELL CARCINOMA, LIVER: HEPATOCELLULAR CARCINOMA, NASAL CAVITY: ADENOCARCINOMA, ADENOMA) “active; positive”.

For `c1ccc(Nc2ccc(Nc3ccccc3)cc2)cc1`, the carcinogen call is “inactive; negative” (Species: RAT, Strain/Sex: F344/FEMALE, Route: ORAL, 0.5, 2% IN DIET FOR 104 WK (STUDY DURATION: 112 WK), 0.5, 2% IN DIET FOR 104 WK (STUDY DURATION: 112 WK)) and “inactive; negative” (Species: RAT, Strain/Sex: F344/MALE, Route: ORAL, 0.5, 2% IN DIET FOR 104 WK (STUDY DURATION: 112 WK), 0.5, 2% IN DIET FOR 104 WK (STUDY DURATION: 112 WK)).

Consider `CCCCCN(N=O)C(=O)OCC`, for which, where the note is “Species: RAT, Strain/Sex: DONRYU/FEMALE, Route: ORAL, 100, 200, 400 PPM IN DRINKING WATER FOR 60 WK, 100, 200, 400 PPM IN DRINKING WATER FOR 60 WK, Tumor Site: Type of Lesion: ORAL CAVITY: PAPILLOMA, CARCINOMA, ESOPHAGUS: PAPILLOMA, CARCINOMA, FORESTOMACH: PAPILLOMA, CARCINOMA, Tumor Site: Type of Lesion: ORAL CAVITY: PAPILLOMA, CARCINOMA, ESOPHAGUS: PAPILLOMA, CARCINOMA, FORESTOMACH: PAPILLOMA, CARCINOMA”, the carcinogen call was “active; positive”.

For the compound `Oc1cccc(O)c1`, the carcinogen call was “inactive; negative” (Species: MOUSE, Strain/Sex: B6C3F1/FEMALE, Route: GAVAGE, 112, 225 MG/KG IN DEIONIZED WATER 5 D/WK FOR 104 WK (STUDY DURATION: 104 WK), 112, 225 MG/KG IN DEIONIZED WATER 5 D/WK FOR 104 WK (STUDY DURATION: 104 WK)); “inactive; negative” (Species: MOUSE, Strain/Sex: B6C3F1/MALE, Route: GAVAGE, 112, 225 MG/KG IN DEIONIZED WATER 5 D/WK FOR 104 WK (STUDY DURATION: 104 WK), 112, 225 MG/KG IN DEIONIZED WATER 5 D/WK FOR 104 WK (STUDY DURATION: 104 WK)); “inactive; negative” (Species: RAT, Strain/Sex: F344/FEMALE, Route: GAVAGE, 50, 100, 150 MG/KG IN DEIONIZED WATER 5 D/WK FOR 104 WK (STUDY DURATION: 104 WK), 50, 100, 150 MG/KG IN DEIONIZED WATER 5 D/WK FOR 104 WK (STUDY DURATION: 104 WK)); “inactive; negative” (Species: RAT, Strain/Sex: F344/MALE, Route: GAVAGE, 112, 225 MG/KG IN DEIONIZED WATER 5 D/WK FOR 104 WK (STUDY DURATION: 104 WK), 112, 225 MG/KG IN DEIONIZED WATER 5 D/WK FOR 104 WK (STUDY DURATION: 104 WK)).

For the compound `O[C@@H]1[C@@H]2O[C@@H]2c2c(ccc3cc4ccc5ccccc5c4nc23)[C@H]1O`, the carcinogen call was “active; positive” (Species: MOUSE, Strain/Sex: CD-1/FEMALE, Route: INTRAPERITONEAL, 28 NMOL (TOTAL DOSE) ADMINISTERED AS 1/7 OF DOSE WITHIN 24 HR AFTER BIRTH, 2/7 OF DOSE AT 8 D OLD, 4/7 OF DOSE AT 15, Tumor Site: Type of Lesion: LUNG: TUMOR); “active; positive” (Species: MOUSE, Strain/Sex: CD-1/FEMALE, Route: INTRAPERITONEAL, 70, 175 NMOL (TOTAL DOSE) ADMINISTERED AS 1/7 OF DOSE WITHIN 24 HR AFTER BIRTH, 2/7 OF DOSE AT 8 D OLD, 4/7 OF DOSE A, 70, 175 NMOL (TOTAL DOSE) ADMINISTERED AS 1/7 OF DOSE WITHIN 24 HR AFTER BIRTH, 2/7 OF DOSE AT 8 D OLD, 4/7 OF DOSE A, Tumor Site: Type of Lesion: LIVER: TUMOR, LUNG: TUMOR); “active; positive” (Species: MOUSE, Strain/Sex: CD-1/MALE, Route: INTRAPERITONEAL, 28 NMOL (TOTAL DOSE) ADMINISTERED AS 1/7 OF DOSE WITHIN 24 HR AFTER BIRTH, 2/7 OF DOSE AT 8 D OLD, 4/7 OF DOSE AT 15, Tumor Site: Type of Lesion: LIVER: TUMOR, LUNG: TUMOR); “active; positive” (Species: MOUSE, Strain/Sex: CD-1/MALE, Route: INTRAPERITONEAL, 70, 175 NMOL (TOTAL DOSE) ADMINISTERED AS 1/7 OF DOSE WITHIN 24 HR AFTER BIRTH, 2/7 OF DOSE AT 8 D OLD, 4/7 OF DOSE A, 70, 175 NMOL (TOTAL DOSE) ADMINISTERED AS 1/7 OF DOSE WITHIN 24 HR AFTER BIRTH, 2/7 OF DOSE AT 8 D OLD, 4/7 OF DOSE A, Tumor Site: Type of Lesion: LIVER: TUMOR, LUNG: TUMOR).

Turning to `CCOP(=S)(OCC)Oc1nc(Cl)c(Cl)cc1Cl`, the carcinogen call runs as follows: (Species: Mouse, Strain/Sex: CD-1/Female (59/group), Route: Oral, 5, 50, 250 ppm in diet for 79 wk, 5, 50, 250 ppm in diet for 79 wk) “inactive; negative (study details not given in source; purity 99.6%)”; (Species: Mouse, Strain/Sex: CD-1/Male (59/group), Route: Oral, 5, 50, 250 ppm in diet for 79 wk, 5, 50, 250 ppm in diet for 79 wk) “inactive; negative (study details not given in source; purity 99.6%)”; (Species: RAT, Strain/Sex: F344/FEMALE, Route: ORAL, 0.05, 0.1, 1, 10 MG/KG BW/D IN DIET FOR 104 WK (STUDY DURATION: 104 WK), 0.05, 0.1, 1, 10 MG/KG BW/D IN DIET FOR 104 WK (STUDY DURATION: 104 WK)) “inactive; negative”; (Species: RAT, Strain/Sex: F344/MALE, Route: ORAL, 0.05, 0.1, 1, 10 MG/KG BW/D IN DIET FOR 104 WK (STUDY DURATION: 104 WK), 0.05, 0.1, 1, 10 MG/KG BW/D IN DIET FOR 104 WK (STUDY DURATION: 104 WK)) “inactive; negative”.
